According to the supplement of paper PMC10307832:

How the values were obtained:
Assay in all cases: relative viability (nuclei count vs DMSO), 5 days (fraction); higher = more cells survive
AZD5582 + Bortezomib = compound: C[C@@H](C(=O)N[C@@H](C1CCCCC1)C(=O)N2CCC[C@H]2C(=O)N[C@@H]3[C@@H](CC4=CC=CC=C34)OCC#CC#CCO[C@@H]5CC6=CC=CC=C6[C@@H]5NC(=O)[C@@H]7CCCN7C(=O)[C@H](C8CCCCC8)NC(=O)[C@H](C)NC)NC [AZD5582] + CC(C)C[C@H](NC(=O)[C@H](Cc1ccccc1)NC(=O)c1cnccn1)B(O)O [Bortezomib] (partner 0.002 µM)
How it was run: (§1)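 After 5 days of treatment, lung cancer cells in 1536-well plates were fixed and stained in a single step (final 0.05% Triton X-100, 1% formaldehyde, 1 ug/ml Hoechst) and their nuclei counted on 4× images. Treatment had been applied by pin tool the day after seeding as one drug alone or as a fixed anchor-drug dose with five library-drug doses (not always all listed) in √10 steps. Relative viability is the nuclei count of treated wells divided by that of vehicle wells, and values are medians of duplicate plates.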

AZD5582 + Dasatinib = compound: C[C@@H](C(=O)N[C@@H](C1CCCCC1)C(=O)N2CCC[C@H]2C(=O)N[C@@H]3[C@@H](CC4=CC=CC=C34)OCC#CC#CCO[C@@H]5CC6=CC=CC=C6[C@@H]5NC(=O)[C@@H]7CCCN7C(=O)[C@H](C8CCCCC8)NC(=O)[C@H](C)NC)NC [AZD5582] + Cc1nc(Nc2ncc(C(=O)Nc3c(C)cccc3Cl)s2)cc(N2CCN(CCO)CC2)n1 [Dasatinib] (partner 0.075 µM)
How it was run: as §1

[1] = compound: Cn1nnc2c(C(N)=O)ncn2c1=O [Temozolomide] + CC(=O)Nc1cccc(-n2c(=O)n(C3CC3)c(=O)c3c(Nc4ccc(I)cc4F)n(C)c(=O)c(C)c32)c1 [Trametinib] (partner 0.02 µM)
How it was run: as §1

Temozolomide + Foretinib = compound: Cn1nnc2c(C(N)=O)ncn2c1=O [Temozolomide] + COc1cc2c(Oc3ccc(NC(=O)C4(C(=O)Nc5ccc(F)cc5)CC4)cc3F)ccnc2cc1OCCCN1CCOCC1 [Foretinib] (partner 0.25 µM)
How it was run: as §1

| Cell Line | relative viability (AZD5582 + Bortezomib; first compound 0.001581 µM) | relative viability (AZD5582 + Bortezomib; first compound 0.005 µM) | relative viability (AZD5582 + Bortezomib; first compound 0.01581 µM) | relative viability (AZD5582 + Bortezomib; first compound 0.05 µM) | relative viability (AZD5582 + Dasatinib; first compound 0.001581 µM) | relative viability (AZD5582 + Dasatinib; first compound 0.005 µM) | relative viability (AZD5582 + Dasatinib; first compound 0.01581 µM) | relative viability (AZD5582 + Dasatinib; first compound 0.05 µM) | relative viability ([1]; first compound 0.2 µM) | relative viability ([1]; first compound 0.6325 µM) | relative viability ([1]; first compound 2 µM) | relative viability ([1]; first compound 6.325 µM) | relative viability ([1]; first compound 20 µM) | relative viability (Temozolomide + Foretinib; first compound 0.2 µM) | relative viability (Temozolomide + Foretinib; first compound 0.6325 µM) | relative viability (Temozolomide + Foretinib; first compound 2 µM) | relative viability (Temozolomide + Foretinib; first compound 6.325 µM) | relative viability (Temozolomide + Foretinib; first compound 20 µM) |
| --- | --- | --- | --- | --- | --- | --- | --- | --- | --- | --- | --- | --- | --- | --- | --- | --- | --- | --- |
| LCLC-103H | 0.972 | 1.14 | 0.958 | 1 | 0.411 | 0.475 | 0.403 | 0.152 | 0.725 | 0.624 | 0.686 | 0.678 | 0.617 | 0.834 | 0.787 | 0.895 | 0.73 | 0.713 |
| NCI-H2087 | 0.874 | 0.861 | 0.735 | 0.933 | 0.7 | 0.915 | 0.848 | 0.945 | 0.209 | 0.213 | 0.255 | 0.204 | 0.172 | 1.23 | 1.16 | 1.19 | 1.23 | 1.04 |
| NCI-H322M | 1.18 | 1.37 | 1.18 | 1.41 | 0.314 | 0.285 |  | 0.269 | 0.446 | 0.526 | 0.569 | 0.532 | 0.451 |  | 0.937 | 1.12 | 0.982 | 0.864 |
| PC-14 | 0.736 | 0.777 | 0.85 | 0.743 | 0.258 | 0.302 | 0.219 | 0.257 | 0.96 | 0.766 | 0.758 | 0.813 | 0.585 | 1.07 | 0.98 | 1.03 | 1.01 | 0.202 |
| NCI-H460 | 1.02 | 1.05 | 1.06 | 1.34 | 0.439 | 0.578 | 0.429 | 0.362 | 0.136 | 0.236 | 0.158 | 0.0735 | 0.134 | 0.988 | 0.967 | 1 | 0.96 | 1.11 |
| SK-LU-1 | 0.436 | 0.697 | 0.856 | 0.477 | 0.147 | 0.0852 | 0.174 | 0.0634 | 0.534 | 0.487 | 0.44 | 0.382 | 0.361 | 0.954 | 0.849 | 0.585 | 0.444 | 0.342 |
| H3255 | 0.823 | 0.879 | 0.385 | 0.552 | 0.329 | 0.404 | 0.294 | 0.283 |  | 0.62 | 0.656 | 0.63 | 0.214 |  | 0.845 | 1.03 | 0.507 | 0.201 |
| NCI-H1355 | 1.02 | 1.14 | 1.11 | 1.11 | 0.638 | 0.749 | 0.583 | 0.719 | 0.436 | 0.464 | 0.483 | 0.452 | 0.403 | 0.947 | 0.938 | 1.1 | 1 | 0.908 |
| NCI-H661 | 0.752 | 0.927 | 0.702 | 0.921 | 0.866 | 1.15 | 0.908 | 0.873 | 0.513 | 0.564 | 0.654 | 0.528 | 0.562 | 0.941 | 1.01 | 1.05 | 0.955 | 0.963 |
